Molecular target: T1, deltaF508 CFTR (Homo sapiens, UniProt P13569, DEL508-508)
T1 construct: host or cells: CFBE (cystic fibrosis bronchial-derived cell line)
Assay: CFBE potentiator assay (FLIPR membrane potential, temperature-rescued)
Type: cell-based
Details: CFBE cells, 3 micromolar forskolin; bin 1 nM-100 nM; read-out: CFBE potentiator EC50 range
Procedure: Cell culture: HEK293 cells stably expressing human deltaF508 CFTR were cultured in DMEM/F12 medium containing 10% fetal bovine serum (FBS) and 600 micrograms/mL geneticin. For functional CFTR assays, cryo-preserved cells were quickly thawed in a 37° C. water bath, diluted with warm DMEM/F12 medium containing 10% FBS, spun down at 300×g for 5 mins and resuspended in the same medium at a density of 300,000 cells/mL. A cystic fibrosis bronchial-derived cell line complemented with a 4.7 Kb deltaF508 CFTR cDNA (“CFBE”) was obtained from Dr. Dieter Gruenert under a license from UCSF. These cells were cultured in MEM with Earle's salt (Invitrogen)supplemented with 10% fetal bovine serum (Invitrogen) and 300 micrograms/mL hygromycin (Millipore). CFBE cells were grown on flasks coated with a fibronectin solution containing LHC basal medium (Invitrogen), 0.001% bovine serum albumin (Sigma), 1% v/v Vitrogen 100 (BD Bioscience) and 10 micrograms/mL human fibronectin (Life Technologies). All cells were grown at 37° C. and 5% CO2 unless specified for an assay.
CFBE potentiator assay: CFBE cells were dissociated for 10 mins at 37° C. with Hank's balanced salt solution containing 0.6 mM EDTA and 10% of a 0.25% Trypsin/EDTA solution (all from Life Technologies). An equal amount of CFBE cell growth medium (see Cell culture above) was then added to the flasks and cells were spun at 500×g for 10 mins. Cells were re-suspended in cell medium at a density of 150,000 cells/mL and plated in 384-well black, poly-D-Lysine-coated plates (7,500 cells/well). Cells were then grown at 37° C., 5% CO2 for a total of 6-8 days to allow differentiation. Cell medium was changed every 2-3 days. The day before each experiment, culture medium was removed, fresh culture medium was added and cells were placed at 30° C., 5% CO2 for 18-24 hrs to allow temperature rescue of delF508 CFTR. Potentiation activity was measured as described above for HEK cells except cells were stained for exactly 60 mins, compounds (or DMSO for negative control) were mixed with assay buffer containing 3 micromolar forskolin, and the positive control wells had assay buffer containing 3 micromolar forskolin and 9 micromolar VX-770 (Selleckchem).
Data analysis: CFTR activity was defined as maximum fluorescence signal after addition minus baseline fluorescence. All data were normalized to each plate's positive and negative controls and expressed as percent responses. Concentration response curves were analyzed by fitting the data to a 4-parameter logistic equation in Microcal's Origin or IDBS' Activity Base software.

T1 sequence (P13569 with tags, fused parts or gaps DEL508-508): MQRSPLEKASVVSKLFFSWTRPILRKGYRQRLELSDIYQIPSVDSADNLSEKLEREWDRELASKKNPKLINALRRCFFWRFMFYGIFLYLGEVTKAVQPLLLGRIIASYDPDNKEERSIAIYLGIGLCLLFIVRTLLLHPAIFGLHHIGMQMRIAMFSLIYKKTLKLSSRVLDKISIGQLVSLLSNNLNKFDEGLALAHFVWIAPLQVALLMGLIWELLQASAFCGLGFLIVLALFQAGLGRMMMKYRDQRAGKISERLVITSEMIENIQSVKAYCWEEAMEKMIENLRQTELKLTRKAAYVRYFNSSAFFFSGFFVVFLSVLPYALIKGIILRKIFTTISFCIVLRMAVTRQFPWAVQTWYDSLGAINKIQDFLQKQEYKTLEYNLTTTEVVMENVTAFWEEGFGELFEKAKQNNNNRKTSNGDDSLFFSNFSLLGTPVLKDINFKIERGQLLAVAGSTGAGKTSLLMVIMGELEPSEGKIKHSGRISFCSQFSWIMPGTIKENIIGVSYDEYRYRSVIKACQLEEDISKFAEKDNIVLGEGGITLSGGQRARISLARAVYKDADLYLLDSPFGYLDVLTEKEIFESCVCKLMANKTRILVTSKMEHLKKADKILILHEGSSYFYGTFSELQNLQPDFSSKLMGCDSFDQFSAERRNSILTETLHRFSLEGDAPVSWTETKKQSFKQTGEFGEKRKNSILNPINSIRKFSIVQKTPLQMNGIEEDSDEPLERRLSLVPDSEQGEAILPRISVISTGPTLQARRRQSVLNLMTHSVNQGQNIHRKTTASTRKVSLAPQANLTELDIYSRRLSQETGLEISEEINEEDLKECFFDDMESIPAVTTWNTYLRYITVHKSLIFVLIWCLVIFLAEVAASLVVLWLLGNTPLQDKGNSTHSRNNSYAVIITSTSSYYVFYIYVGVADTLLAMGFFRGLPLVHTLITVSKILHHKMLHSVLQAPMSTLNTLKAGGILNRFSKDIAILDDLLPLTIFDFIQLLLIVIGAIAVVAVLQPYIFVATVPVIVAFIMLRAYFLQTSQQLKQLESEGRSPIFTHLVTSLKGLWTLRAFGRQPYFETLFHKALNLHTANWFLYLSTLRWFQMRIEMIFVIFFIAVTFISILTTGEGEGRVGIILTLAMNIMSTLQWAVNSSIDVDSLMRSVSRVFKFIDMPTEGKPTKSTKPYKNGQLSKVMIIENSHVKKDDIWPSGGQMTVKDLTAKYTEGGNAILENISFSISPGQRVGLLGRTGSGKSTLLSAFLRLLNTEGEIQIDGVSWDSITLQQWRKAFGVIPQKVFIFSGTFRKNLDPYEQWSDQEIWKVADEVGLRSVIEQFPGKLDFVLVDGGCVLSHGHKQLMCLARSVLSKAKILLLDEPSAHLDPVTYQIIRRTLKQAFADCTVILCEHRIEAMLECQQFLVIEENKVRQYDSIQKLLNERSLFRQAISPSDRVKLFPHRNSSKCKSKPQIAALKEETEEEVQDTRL

Q: How did the EC50 turn out when `Nc1c(N2CCCCC2)c(-c2ccccc2)nn(-c2ccc(Cl)c(O)c2)c1=O` was run?
A: 1 to 100 nM

Q: How did the EC50 turn out when `Nc1c(N2CCCC2)c(-c2ccc(F)cc2)nn(-c2ccc(Cl)c(O)c2)c1=O` was run?
A: 1 to 100 nM

Q: Which EC50 does the source give for `Nc1c(N2CCCC2)c(-c2ccc(F)cc2)nn(-c2ccc(F)c(O)c2)c1=O` here?
A: 1 to 100 nM

Q: How did the EC50 turn out when `CC(C)c1ccc(-n2nc(-c3ccc(F)cc3)c(N3CCCC3)c(N)c2=O)cc1O` was run?
A: 1 to 100 nM

Q: Which EC50 does the source give for `Cc1ccc(-n2nc(-c3ccc(F)cc3)c(N3CCCC3)c(N)c2=O)cc1O` here?
A: 1 to 100 nM

Q: Which EC50 does the source give for `Nc1c(N2CCCCC2)c(-c2ccccc2)nn(-c2ccc(C(F)(F)F)c(O)c2)c1=O` here?
A: 1 to 100 nM

Q: With `Nc1c(N2CCCCC2)c(-c2ccc(F)cc2)nn(-c2ccc(C(F)(F)F)c(O)c2)c1=O` as the molecule, how does the EC50 read?
A: 1 to 100 nM

Q: How did the EC50 turn out when `Nc1c(N2CCCCC2)c(-c2ccc(F)cc2)nn(-c2cccc(O)c2)c1=O` was run?
A: 1 to 100 nM

Q: Which EC50 does the source give for `Nc1c(N2CCCC2)c(-c2ccccc2)nn(-c2ccc(Cl)c(O)c2)c1=O` here?
A: 1 to 100 nM

Q: Which EC50 does the source give for `CC(C)c1ccc(-n2nc(-c3ccc(F)cc3)c(N3CCCCC3)c(N)c2=O)cc1O` here?
A: 1 to 100 nM

Q: Which EC50 does the source give for `CC(C)(C)c1ccc(-n2nc(-c3ccccc3)c(N3CCCC3)c(N)c2=O)cc1O` here?
A: 1 to 100 nM

Q: With `Nc1c(N2CCCCC2)c(-c2ccc(F)cc2)nn(-c2ccc(F)c(O)c2)c1=O` as the molecule, how does the EC50 read?
A: 1 to 100 nM

Q: `Cc1ccc(-n2nc(-c3ccccc3)c(N3CCCCC3)c(N)c2=O)cc1O` was tested. Which EC50 did it give?
A: 1 to 100 nM

Q: Which EC50 does the source give for `Cc1ccc(-n2nc(-c3ccc(F)cc3)c(N3CCCCC3)c(N)c2=O)cc1O` here?
A: 1 to 100 nM

Q: Which EC50 does the source give for `CC(C)c1ccc(-n2nc(-c3ccccc3)c(N3CCCCC3)c(N)c2=O)cc1O` here?
A: 1 to 100 nM

Q: With `Nc1c(N2CCCC2)c(-c2ccccc2)nn(-c2cccc(O)c2)c1=O` as the molecule, how does the EC50 read?
A: 1 to 100 nM

Q: `CC(C)(C)c1ccc(-n2nc(-c3ccccc3)c(N3CCCCC3)c(N)c2=O)cc1O` was tested. Which EC50 did it give?
A: 1 to 100 nM

Q: How did the EC50 turn out when `Nc1c(N2CCCC2)c(-c2ccc(F)cc2)nn(-c2ccc(C(F)(F)F)c(O)c2)c1=O` was run?
A: 1 to 100 nM

Q: With `Nc1c(N2CCCCC2)c(-c2ccnc(C(F)(F)F)c2)nn(-c2cccc(O)c2)c1=O` as the molecule, how does the EC50 read?
A: 1 to 100 nM

Q: For `CC(C)(C)c1ccc(-n2nc(-c3ccc(F)cc3)c(N3CCCC3)c(N)c2=O)cc1O`, which EC50 is on record?
A: 1 to 100 nM

Q: Which EC50 does the source give for `CC(C)c1ccc(-n2nc(-c3ccccc3)c(N3CCCC3)c(N)c2=O)cc1O` here?
A: 1 to 100 nM

Q: Which EC50 does the source give for `Nc1c(N2CCCCC2)c(-c2cccnc2)nn(-c2cccc(O)c2)c1=O` here?
A: 1 to 100 nM

Q: How did the EC50 turn out when `Nc1c(-n2cccn2)c(-c2ccccc2)nn(-c2cccc(O)c2)c1=O` was run?
A: 1 to 100 nM

Q: `Nc1c(N2CCC2)c(-c2ccccc2)nn(-c2cccc(O)c2)c1=O` was tested. Which EC50 did it give?
A: 1 to 100 nM

Q: `Nc1c(N2CCCCC2)c(-c2ccccc2)nn(-c2cccc(O)c2)c1=O` was tested. Which EC50 did it give?
A: 1 to 100 nM

Q: How did the EC50 turn out when `Nc1c(N2CCCCC2)c(-c2ccncc2)nn(-c2cccc(O)c2)c1=O` was run?
A: 1 to 100 nM

Q: For `CC(C)(C)c1ccc(-n2nc(-c3ccc(F)cc3)c(N3CCCCC3)c(N)c2=O)cc1O` [drawing 37], which EC50 is on record?
A: 1 to 100 nM

Q: `Cc1ccccc1-c1nn(-c2cccc(O)c2)c(=O)c(N)c1N1CCCCC1` [drawing 38] was tested. Which EC50 did it give?
A: 1 to 100 nM

Q: With `CN(C)c1c(-c2ccccc2)nn(-c2cccc(O)c2)c(=O)c1N` [drawing 45] as the molecule, how does the EC50 read?
A: 1 to 100 nM

Same assay, conditions: CFBE cells, 3 micromolar forskolin; bin 100 nM-1 μM; read-out: CFBE potentiator EC50 range

Q: With `Nc1c(N2CCCCC2)c(-c2ccccn2)nn(-c2cccc(O)c2)c1=O` as the molecule, how does the EC50 read?
A: 100 to 1000 nM

Q: Which EC50 does the source give for `Nc1c(N2CCOCC2)c(-c2ccccc2)nn(-c2cccc(O)c2)c1=O` here?
A: 100 to 1000 nM

Q: `Nc1c(N2CCCCC2)c(-c2ccccc2)nn(CC(O)C(F)(F)F)c1=O` (centres unmarked) was tested. Which EC50 did it give?
A: 100 to 1000 nM

Q: For `CC(CO)n1nc(-c2ccccc2)c(N2CCCCC2)c(N)c1=O` (centres unmarked), which EC50 is on record?
A: 100 to 1000 nM

Q: `Nc1c(N2CCCCC2)c(-c2ccccc2)nn(Cc2ccccc2)c1=O` was tested. Which EC50 did it give?
A: 100 to 1000 nM

Same assay, conditions: CFBE cells, 3 micromolar forskolin; bin 1 μM-10 μM; read-out: CFBE potentiator EC50 range

Q: How did the EC50 turn out when `Nc1c(N2CCCCC2)c(-c2ccccc2)nn(CCCO)c1=O` was run?
A: 1000 to 10000 nM

Q: How did the EC50 turn out when `N#CCCn1nc(-c2ccccc2)c(N2CCCCC2)c(N)c1=O` was run?
A: 1000 to 10000 nM

Same assay, conditions: CFBE cells, 3 micromolar forskolin; read-out: CFBE potentiator assay pot. pEC50 (converted)

Q: For `Cc1ccccc1-c1nn(-c2cccc(O)c2)c(=O)c(N)c1N1CCCCC1` [Compound 15, 4-amino-2-(3-hydroxyphenyl)-5-(piperidin-1-yl)-6-(o-tolyl)pyridazin-3(2H)-one], which EC50 is on record?
A: 15.8 nM

Q: For `CN(C)c1c(-c2ccccc2)nn(-c2cccc(O)c2)c(=O)c1N` [Compound 21, 4-amino-5-(dimethylamino)-2-(3-hydroxyphenyl)-6-phenylpyridazin-3(2H)-one], which EC50 is on record?
A: 20 nM

Reference: patent US20260055065A1, “PYRIDAZINONE COMPOUNDS WHICH MODULATE MUTANT PROTEINS FOR TREATING RESPIRATORY DISEASES” (The Hospital for Sick Children, priority 2022, published 2026)
